{"source": "patent US7585839B2", "about": "“Medical uses of intercellular communication facilitating compounds” (Zealand Pharma A/S, priority 2001, dated 2009)", "key": {"[1]": {"test_system": "human osteoblastic cells", "assay": "DDT-induced uncoupling in human osteoblast cells, Lucifer Yellow microinjection", "format": "cell-based", "details": "13 μM, 60 minutes; control 14.5 cells", "experimental": "Human osteoblast cells: Cells were isolated from human bone marrow obtained by puncture of the posterior iliac spine of healthy volunteers (aged 20-36): 10-15 ml marrow material was collected in 15 ml PBS+Ca, Mg (Life Technologies, Cat.No. 14040) with 100 U/ml Heparin (Sigma, Cat.No. H-3149). The mononuclear fraction of the marrow was isolated on a Lymphoprep gradient (Nycomed Pharma, Cat.No. 1001967), by centrifugation at 2200 rpm for 30 min. After harvesting, the mononuclear fraction was washed once with culture medium and centrifuged at 1800 rpm for 10 min. Subsequently cells were counted and plated in culture medium at 8×10^6 cells/100 mm dish. hOB medium (all reagents obtained from Life Technologies): MEM w/o Phenol Red w/Glutamax (Cat.No. 041-93013) supplemented with 10% heat inactivated fetal calf serum (Cat.No. 10106) and 0.1% Penicillin/Streptomycin (Cat.No. 15140). Medium was changed the following day and the cells were cultured at 37° C. in 5%CO2 with medium change every 7 days. After 3-4 weeks of culture the cells had reached 70% confluence. The medium was then supplemented with 100 nM Dexamethasone (Sigma, Cat.No. D-4902) for 7 days. Cells were then plated for video imaging experiments: a 25 mm #1 glass coverslip was placed in a 35 mm dish (or each well of a 6-well multidish), cells were plated at 2.5×10^5 cells/coverslip and cultured for 2-3 days before use. […]"}, "[2]": {"test_system": "phosphoinositol turnover in neonatal rat cardiomyocytes", "assay": "Phosphoinositol turnover in primary cardiomyocyte cultures", "format": "cell-based", "experimental": "Neonatal Wistar rats (1-2 days old) are used. Hank's calcium- and magnesium-free balanced salt solution, buffered with 10 mM HEPES is used for washing during cell separation procedures. The hearts are excised, the ventricles isolated and the tissue cut into small pieces. The myocardial cells are isolated by stepwise enzymatic degradation with collagenase 0.05%, as described by ^[35]. After repeated rounds of centrifugation and washing, the precipitated cells are resuspended in culture medium M199 with Earle's salt, 10% NCS, penicillin (75 U/mL), and streptomycin (75 U/mL) and pre-plated in a Petri dish for 90 minutes. The non-adherent cells are collected in the culture medium and plated in multidishes at 2.5*10^5 cells/well. The cultures are kept in a water-saturated CO2-incubator at 37° C. The cardiomyocyte cultures are used for analyses after 6-7 days.\nCardiomyocyte cultures are incubated for 48 hours in culture medium containing 4 μCi/mL myo-[2-^3H]inositol to label the inositol phospholipids. On the day of analysis the medium is replaced by a buffer solution containing lithium and incubated at 37° C., as described by Meier et al.^[36]. After at least five minutes this buffer is replaced by the same volume of buffer containing test compound and incubated for exactly 20 minutes. The reaction is stopped by rapid replacement of the buffer by ice cold 4% v/v perchloric acid (PCA) and incubation for at least 20 minutes at 0° C. The PCA-extract is neutralised and the [^3H]inositol phosphates are separated by anion-exchange chromatography using Amprep™ columns containing 100 mg SAX Quaternary amine. The [^3H]inositol mono-phosphates are eluted and radioactivity in the fraction measured by liquid scintillation counting.\nBefore adding test substances to the cultures, the cells are depleted of glucose and oxygen by incubating them in a N2-atmosphere in glucose-free lithium-buffer for 10 minutes at 37° C. Control cells are incubated likewise only at normal atmospheric conditions and in a buffer containing glucose."}, "[3]": {"test_system": "WB-F344 rat liver epithelial cells", "details": "cited from earlier work"}, "[4]": {"test_system": "calcium-induced arrythmias", "assay": "Calcium-induced arrhythmia model in mice (CaCl2-induced 2nd degree AV-block)", "format": "in vivo", "details": "for CaCl2 mice In vivo, % / CaCl2 mice Score: calcium chloride induced arrythmia model; for In vivo activity: maximal effect, increase in time until 2nd degree AV-block relative to vehicle treated mice, i.v.", "experimental": "The antiarrhythmic effects of compounds of this invention were tested in an in vivo model of calcium-induced arrythmias according to the model of Lynch et al.^[37]. […]. Commercial solutions of hypnorm and midazolam were diluted 1:1 in distilled water and one part diluted Hypnorm® is mixed with one part diluted midazolam.\nThe anaesthesia was induced by s.c. administration in a dose of 0.05-0.075 μl/10 gram mouse. An i.v. cannula was inserted into the tail vein. The lead II ECG signal was recorded continuously by positioning of a stainless steel ECG electrodes on the right forelimb and on the left hind limb. The ground electrode was placed on the right hind limb. The signal was amplified (×5.000-10.000) and filtered (0.1-150 Hz) via a Hugo Sachs Electronic model 689 ECG module. The analogue signal was digitised via a 12 bit data acquisition board (Data Translation model DT321) and sampled at 1000 Hz using the Notocord HEM 3.1 software for Windows NT. After a 10-min equilibration period, the test sample of drug was injected into the tail vein. Mice pre-treated with vehicle were tested as a measure of the control level in untreated animals. The injection volume was 100 μl in all experiments. Infusion of CaCl2 (30 mg/ml, 0.1 ml/min≈100 mg/kg/min (calciumchlorid-2-hydrat, Riedel-de Haën, Germany)) was started 3 min after i.v. administration of drug or vehicle.\nThe time lag to onset of 2nd degree AV-block was determined as the time from the start of CaCl2 infusion until the first arrhythmic event occured. An event of 2nd degree AV-block was defined as intermittent failure of the AV conduction characterised by a P-wave without the concomitant QRS complex.\nResponses were expressed relative to the time until 2nd degree AV-block occurred in vehicle treated mice."}, "[5]": {"test_system": "connexin 43 in keratinocytes", "details": "keratinocytes of middel aged and elderly people; cited from earlier work"}, "[6]": {"test_system": "GJIC", "details": "10(−10) to 10(−6) M; cited from earlier work"}, "[7]": {"test_system": "cerulein-induced acute pancreatitis", "details": "100 mg/kg orally; pancreatitis group 19%; cited from earlier work"}, "[8]": {"test_system": "membranes from rabbit heart", "details": "cited from earlier work"}, "[9]": {"test_system": "regional ischemia in the rabbit", "details": "cited from earlier work"}, "[10]": {"assay": "In vitro plasma and serum stability, human", "format": "in vitro ADME", "details": "for T½, PLASMA, HEPARIN HUMAN: 37° C., 0.1 mg/ml", "experimental": "(§1) The stability of peptides is analysed in serum and plasma. The peptides are incubated at 37° C. in plasma or serum and samples taken at approx. 9 regular intervals between t=0 and t=156 min are analysed by HPLC.\n(§2) This is done by subsequent injections of the drug, plasma, and a co-injection with the drug and the plasma, followed by optimisation of the LC method parameters until a satisfactory separation is obtained. Three parallel experiments are performed for each plasma type. 100 ml of peptide is mixed with 900 ml plasma at t=0 and incubated at 37° C. (drug-plasma mixture conc. 0.1 mg/ml). Samples of 100 ml of the drug-plasma mixture are removed at appropriate intervals and the degradation stopped by precipitation of the sample with 10 ml MeCN:TFA 50:50 v/v. A control plasma sample without the drug treated in the same manner is also taken. The plasma samples are centrifuged for 15 min. at 12,000 rpm (Eppendorf centrifuge) at ambient temperature. The resulting supernatant solution is transferred to 300 ml HP autosamler vials and analyzed by HPLC. The samples are analyzed in the following order: blank, the peptide at 0.1 mg/mL, the plasma without the peptide, the three parallel samples for t=0, the three parallel samples for t=5 min. the three parallel samples for t=10 min. etc. And finally the three parallel samples for t=0 are repeated to make sure that there have been no degradation or other failure during the analyses. The sample concentrations (peak height in mAU) are plotted vs. time and fitted to a function describing a mono exponential decay (Excel)."}, "[11]": {"assay": "In vitro plasma and serum stability, rabbit", "format": "in vitro ADME", "details": "37° C., 0.1 mg/ml", "experimental": "as §1\nas §2, with “And finally the three parallel samples for t=0 are repeated to make sure that there have been no degradation or other failure during the analyses. The sample concentrations (peak height in mAU) are plotted vs. time and fitted to a function describing a mono exponential decay (Excel).” left out"}}, "note": "[ ]: non-standard residue; d: D form. Hyp = O=C(O)[C@@H]1C[C@@H](O)CN1"}
{"compound": "Clc1ccc(C(c2ccc(Cl)cc2)C(Cl)(Cl)Cl)cc1", "note": "[DDT, 1,1-bis(p-chlorophenyl)-2,2,2-trichlorethane, reference compound]", "values": [{"measurement": "cellular coupling, median number of cells with dye", "setting": "[1]", "value": 7, "unit": "cells"}]}
{"compound": "NC[C@H](O)c1ccc(O)c(O)c1", "note": "[Noradrenaline]", "values": [{"measurement": "Emax of phosphoinositol turnover", "setting": "[2]; atmosphere of N2 and depleted of glucose", "value": "2248±702", "unit": "cpm"}, {"measurement": "Emax of phosphoinositol turnover", "setting": "[2]; normal atmospheric and nutritional conditions", "value": "3852±266", "unit": "cpm"}]}
{"compound": "Oc1ccc(C=Cc2cc(O)cc(O)c2)cc1", "note": "[Resveratrol, resveratrol]", "values": [{"measurement": "prevention of down-regulation of GJIC by DDT, factor", "setting": "[3]; 17-50 microM", "value": 1.8}, {"measurement": "prevention of down-regulation of GJIC by TPA, factor", "setting": "[3]; 17-50 microM", "value": 2.7}, {"measurement": "increase of GJIC, factor compared with solvent vehicle controls", "setting": "[3]; 17 to 50 microM, 6 h", "value": 1.3}, {"measurement": "time until calcium-induced block relative to animals treated with vehicle", "setting": "[4]; iv, 0.1 umol/kg", "value": "136±9", "unit": "%"}]}
{"compound": "COc1cc2c(cc1O)C[C@H]1c3c(cc(O)c(OC)c3-2)CCN1C", "note": "[boldine]", "values": [{"measurement": "optimal concentration for increase of the content of connexin 43", "setting": "[5]", "value": 50, "unit": "nM"}]}
{"compound": "Nc1nc(N)nc(-c2cc(Cl)ccc2Cl)n1", "note": "[irsogladine, 6-(2,5-dichlorophenyl)-2,4-diamino-1,3,5-triazine]", "values": [{"measurement": "effect on GJIC, compound alone", "setting": "[6]", "value": "did not affect GJIC"}, {"measurement": "number of Cx32 grains, % of the normal control value", "setting": "[7]", "value": 70, "unit": "%"}]}
{"compound": "H-GAG[Hyp]PY-NH2 [AAP10]", "values": [{"measurement": "EC50 relative to the EC50 value for Compound 2", "setting": "[2]; metabolic stress induced by anoxia and glucose deprivation", "value": 10, "unit": "fold"}, {"measurement": "EC50 relative to the EC50 value for Compound 2", "setting": "[2]; normoxia", "value": 200, "unit": "fold"}, {"measurement": "value given for AAP10 by Dhein et al.", "setting": "[8]", "value": 0.2, "unit": "nM"}, {"measurement": "CaCl2 mice In vivo, %", "setting": "[4]", "value": "76 +/− 21%"}, {"measurement": "CaCl2 mice Score", "setting": "[4]", "value": 3}, {"measurement": "In vivo activity", "setting": "[4]", "value": "+++ (+++ refers to >60% increase in time until arrhythmia)"}, {"measurement": "concentration of maximal effect on dispersion of the epicardial activation-recovery interval", "setting": "[9]", "value": "10^−8 mol/l"}]}
{"compound": "H-GP[Hyp]GAG-OH [AAP, reference compound]", "values": [{"measurement": "CaCl2 mice In vivo, %", "setting": "[4]", "value": "35 +/− 7%"}, {"measurement": "CaCl2 mice Score", "setting": "[4]", "value": 2}]}
{"compound": "H-Gly-Ala-Gly-Asn-Tyr-NH2 [Compound 39]", "values": [{"measurement": "CaCl2 mice In vivo, %", "setting": "[4]", "value": "53 +/− 15%"}, {"measurement": "CaCl2 mice Score", "setting": "[4]", "value": 2}, {"measurement": "In vivo activity", "setting": "[4]", "value": "+++ (+++ refers to >60% increase in time until arrhythmia)"}]}
{"compound": "H-Gly-Asn-Tyr-NH2 [Compound 41]", "values": [{"measurement": "CaCl2 mice In vivo, %", "setting": "[4]", "value": "58 +/− 10%"}, {"measurement": "CaCl2 mice Score", "setting": "[4]", "value": 2}, {"measurement": "In vivo activity", "setting": "[4]", "value": "++ (++ refers to 30-50% increase in time until arrhythmia)"}]}
{"compound": "H-PYNGAG[Hyp]-NH2 [Compound 27]", "values": [{"measurement": "stability in plasma and serum compared with AAP10", "setting": "[10]", "value": "considerably more stable"}]}
{"compound": "[Pro^4]AAP10-NH2 [reference compound]", "values": [{"measurement": "CaCl2 mice In vivo, %", "setting": "[4]", "value": "62 +/− 9%"}, {"measurement": "CaCl2 mice Score", "setting": "[4]", "value": 3}]}
{"compound": "cyclo(GAG[Hyp]PYN) [Compound 36]", "values": [{"measurement": "T½, PLASMA, HEPARIN RABBIT", "setting": "[11]", "value": "30 hrs ± 8%"}, {"measurement": "CaCl2 mice In vivo, %", "setting": "[4]", "value": "57 +/− 8%"}, {"measurement": "CaCl2 mice Score", "setting": "[4]", "value": 2}, {"measurement": "In vivo activity", "setting": "[4]", "value": "+++ (+++ refers to >60% increase in time until arrhythmia)"}, {"measurement": "Human plasma half life", "setting": "[10]", "value": 13, "unit": "h"}, {"measurement": "T½, PLASMA, HEPARIN HUMAN", "setting": "[10]", "value": "9 hrs ± 1%"}]}
{"compound": "cyclo(GAG[Hyp]PYQ) [Compound 35]", "values": [{"measurement": "T½, PLASMA, HEPARIN RABBIT", "setting": "[11]", "value": "14 hrs ± 2%"}, {"measurement": "CaCl2 mice In vivo, %", "setting": "[4]", "value": "48 +/− 14%"}, {"measurement": "CaCl2 mice Score", "setting": "[4]", "value": 2}, {"measurement": "In vivo activity", "setting": "[4]", "value": "++ (++ refers to 30-50% increase in time until arrhythmia)"}, {"measurement": "Human plasma half life", "setting": "[10]", "value": 15, "unit": "h"}, {"measurement": "T½, PLASMA, HEPARIN HUMAN", "setting": "[10]", "value": "15 hrs ± 1%"}]}
